In general, pEC50 refers to the negative decadic logarithm of the EC50, by convention in mol/L. Higher therefore signals a low EC50. A word on the Ki: it is the equilibrium dissociation constant of an inhibitor or competing ligand from its target. Low readings indicate a stronger hold on the target, high ones a looser hold on the target.

This is an account of results in PMC8878464, “Fenchone Derivatives as a Novel Class of CB2 Selective Ligands: Design, Synthesis, X-ray Structure and Therapeutic Potential” (Molecules, 2022).

Assay [1] concerns zymosan-induced paw inflammation. Description: Zymosan-induced hind paw swelling (oedema) in mice. Type of assay: in vivo. The note with it: 6 h after 60 μg zymosan paw injection.
Assay [2] relates to zymosan-induced hyperalgesia. The experiment in a line: von Frey monofilament pain assay in zymosan-injected mice. The settings on record: 15 and 25 mg/kg ip, after 6 h, p < 0.01. In kind it is in vivo. As for the experimental part:
We injected 40 μL of 1.5% (w/v) zymosan A in 0.9% saline into the right hind paw of the mice to induce inflammation. […] Control mice were injected with vehicle. Paw swelling and pain perception were measured after 2, 6 and 24 h.

The target of a further assay is T1, hCB2R (Homo sapiens, UniProt P34972).
T1 construct: purchased Charles River A318; host or cells: CHO-K1 cells
T1 sequence (P34972 whole entry): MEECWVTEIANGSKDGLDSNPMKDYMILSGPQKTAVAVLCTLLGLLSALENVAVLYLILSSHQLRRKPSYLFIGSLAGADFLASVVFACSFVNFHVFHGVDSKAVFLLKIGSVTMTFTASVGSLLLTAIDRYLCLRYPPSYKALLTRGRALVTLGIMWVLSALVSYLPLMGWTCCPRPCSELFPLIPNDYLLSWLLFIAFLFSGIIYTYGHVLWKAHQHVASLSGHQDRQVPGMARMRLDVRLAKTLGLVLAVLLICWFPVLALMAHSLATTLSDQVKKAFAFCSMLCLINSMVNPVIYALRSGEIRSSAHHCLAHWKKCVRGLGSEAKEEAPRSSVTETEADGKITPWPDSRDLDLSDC
Description: [35S]GTPγS binding assay at hCB2R. Type of assay: biochemical. As for the experimental part: The method used for measuring agonist-stimulated binding of [^35S]GTPγS was based on a described protocol. Membranes (5 μg protein) were incubated in GTPγS assay buffer (50 mM Tris HCl (pH 7.4), 0.2 mM EGTA, 9 mM MgCl2, 150 mM NaCl, 1 mg/mL BSA) containing 100 μM GDP, 0.05 nM [^35S]GTPγS and test compounds at various concentrations. Vacuum filtration was used to separate bound ligand from free ligand. We used 10 μM GTPS to determine nonspecific binding. Basal binding was assayed in the absence of the ligand and in the presence of GDP.
Each symbol represents the mean percentage increase in [^35S]GTPγS binding ± SE.

For another assay, the target named is human CB2R (hCB2R) (Homo sapiens, UniProt P34972). The experiment in a line: [3H]CP-55,940 competition displacement binding assay, hCB2R membranes. The settings on record: Ki (nM) hCB2R. As for the experimental part:
The compounds were further characterized using a radioligand binding assay to determine their affinities for CB1R and CB2R based on each test compound’s ability to displace the radiolabeled CB1R/CB2R agonist CP-55,940 from membranes of cells expressing the human CB1R and CB2R [24].
Membranes from cells expressing hCB1R and hCB2R were purchased from Charles River, (Cat#A317 and A318, respectively; OH, USA). Solutions of test compounds ranging from 0.1 nM to 10 mM were prepared in DMSO. The desired amount of membrane preparation was diluted with ice-cold assay buffer (50 mM Tris-HCl, 2.5 mM EDTA, 5 mM MgCl2, 0.1% BSA, pH 7.4) and was vortexed. […] The assays were incubated for 90 min at 30 °C and then immediately filtered on WHATMAN GF/B Filter Paper (Fired) using a Brandel M-24R Harvester followed by six washes with ice cold wash buffer (50 mM Tris-HCl, 2.5 mM EDTA, 5 mM MgCl2, 0.1% BSA, pH 7.4). Radioactivity was detected by adding the Filter Paper directly to the ULTIMA GOLD scintillation cocktail (PerkinElmer, Waltham, MA, USA), incubation at 20 °C for 60 min and then counted using a Tri-Carb 4910TR liquid scintillation counter (PerkinElmer, Waltham, MA, USA).
Each curve represents the mean of three experiments performed in triplicate.

For a further assay, the system named is TNF-α. Description: Serum TNF-α (ELISA) after zymosan injection in mice. In kind it is in vivo. The settings on record: 24 h after zymosan. As for the experimental part:
Control mice were injected with vehicle.
A mouse TNFα ELISA kit was used according to the manufacturer’s instructions (R&D Systems, Minneapolis, MN, USA).
(An ELISA detects its analyte on a solid surface through an enzyme-linked reagent.)

pEC50: −log10 of the molar value.

Chain of human CB2R (hCB2R) (P34972 whole entry): as above

With `CCCCCCC(C)(C)c1cc(OC)c(C2(O)C3(C)CCC(C3)C2(C)C)c(OC)c1` (centres unmarked) [Compound 1d, 2-(2′,6′-Dimethoxy-4′-(2″-methyloctan-2″-yl)phenyl)-1,3,3-trimethylbicyclo[2.2.1]heptan-2-ol], the reduction in swelling in assay [1] (15 mg/kg ip) is listed as 30%; in assay [1] (25 mg/kg ip) it was 54%. Also, in assay [2], the “anti-nociceptive effect (paw withdrawal threshold, von Frey)” value is “strong anti-nociceptive effects”. At hCB2R (increase in [35S]GTPγS binding to hCB2R, two independent experiments in triplicate), this compound showed a pEC50 of 8.59. In addition, on hCB2R (maximal effect as percentage of HU-308 response at 1 µM), the “E(max)%” value is 89.6%. The same compound returned a Ki at human CB2R (hCB2R) of 3.51 nM. The “inhibition of TNF-α serum levels” value was found to be 26% with TNF-α (15 mg/kg ip) and 40% with TNF-α (25 mg/kg ip).
